Data on four compounds can be found in US8530183B2, “Zinc sensors for cellular imaging” (The Board of Regents of the University of Texas System, priority 2010, dated 2013).

Where “and” joins values, the source holds several entries; their conditions need not be identical. Equal values may be shown once. Entries after “also recorded” stand apart in the source; their conditions may differ. Read-outs that look alike come from different tables or passages of the source.

The subject of one data set is pancreatic islets. As to the kind of experiment: Confocal imaging of dye uptake and insulin/Zn2+ release in pancreatic islets. The following applies: ZIMIR 2 μM for 25 min; mouse and human islets. The class given is cell-based, mouse. As for the experimental part:
FIGS. 8A-C. Imaging insulin/Zn^2+ release in islets by confocal laser scanning microscopy. (FIGS. 8A-B) Confocal images of mouse islets labeled with ZIMIR (FIG. 8A) or calcein/AM (FIG. 8B). (FIG. 8C) Confocal ZIMIR imaging of insulin/Zn^2+ release in a mouse islet bathed in SAB. Images from two example layers 15 μm apart before and 10 sec post KCl (40 mM) stimulation were shown.
FIG. 11. ZIMIR rapidly labels cells of intact human islets. Representative CLSM images of a ZIMIR labeled human islet at three focal planes 20 μm apart.
Islets labeling and ZIMIR imaging by confocal laser scanning microscopy. Experiments with rodent animals were carried out according to protocols approved by the Institutional Animal Care and Use Committee of University of Texas Southwestern Medical Center. Rodent islets were isolated from Sprague-Dawley rats or C57BL/6 mice after digesting exocrine tissues of pancreas using collagenase as described below. To image insulin release in islets, the inventors labeled islets with ZIMIR (final concentration 2 μM with 0.025% Pluronic) in SAB buffer for […]. Labeled islets were then transferred to an imaging dish that had been coated with 0.5% PuraMatrix peptide hydrogel (BD Biosciences, Cat # 354250). Islets adhered to the PuraMatrix hydrogel within 5 min. They then imaged ZIMIR fluorescence by confocal laser scanning microscopy using a LSM510 imaging system (Carl Zeiss) and a 40× oil immersion objective (Dakin and Li, 2007).
Confocal imaging of ZIMIR uptake and insulin/Zn^2+ release in pancreatic islets. In addition to cultured cells, ZIMIR also rapidly and noninvasively labels cells in preparations such as dissected pancreatic islets. After loading islets with ZIMIR (2 μM) for 25 min, the inventors applied CLSM to track the distribution of ZIMIR in three dimensions (3D). […] The result confirmed that ZIMIR readily diffused through the interstitial space to reach interior cells, whereas calcein/AM was trapped by cells in the outer layer, unable to penetrate any deeper. After labeling, the inventors depolarized cells with high concentration of KCl.

A short description of data set [1]: Competition assay of Zn2+ chelation kinetics (ZIMIR-C2 fluorescence decline after adding EDTA or DPAS). The note with it: physiological salines, ZIMIR-C2 1 μM in Hanks Balanced Saline Solution. As for the experimental part: FIG. 10. […] In this competition assay, fluorescence intensity (Ex 490 nm, Em 525 nm) of ZIMIR-C2 (1 μM) in Hanks Balanced Saline Solution was recorded. The rate of fluorescence intensity decline after adding EDTA or DPAS reflects the kinetics of EDTA/Zn^2I or DPAS/Zn^2+ complexation.

A further data set deals with INS-1 cells. Briefly: Response of membrane-anchored ZIMIR to extracellular Zn2+ and decay upon Zn2+ washout. The class given is cell-based, rat. The note with it: INS-1 cells labeled with ZIMIR, EDTA 10 μM plus DPAS at low micromolar concentrations. As for the experimental part: FIGS. 5A-B. Membrane anchored ZIMIR reports changes of [Zn^2+]e. (FIG. 5A) Example fluorescence images (Excitation 488±7.5 nm, emission 530±20 nm) of INS-1 cells labeled with ZIMIR at different [Zn^2+]e. (FIG. 5B) Quantification of the average ZIMIR fluorescence intensity along the plasma membrane (IZIMIR(PM)).
(FIG. 7A) Time courses of IZIMIR(PM) decay after washing INS-1 cells (initially bathed in FIBS containing 1 μM Zn^2+) with HBS containing EDTA (10 μM) and DPAS (0-8 μM). (FIG. 7B) ZIMIR imaging of insulin/Zn^2+ release of MIN6 cells bathed in SAB containing EDTA (10 μM) and DPAS (4 μM). Time courses of IZIMIR(PM) fluctuation of four separate regions of interest (ROI 1-4) and example ZIMIR images at different time points were shown (a-e; arrow heads highlighting local ZIMIR increases in separate ROIs at different time).
To characterize the response of membrane anchored ZIMIR to changes of extracellular Zn^2+ concentration ([Zn^2+]), the inventors varied [Zn^2+]e from low nanomolar to micromolar, using Zn^2-1 buffers containing nitrilotriacetic acid (for [Zn^2+]e<100 nM) (Hirano et al., 2000) or histidine (for [Zn^2+]e. 100 nM) (Hauser and Tsien, 2007). After recording fluorescence images at different [Zn^2+]e levels, the inventors washed cells with a nominally Zn^2+ free SAB containing 0.2 mM DPAS and followed the decay of IZIMIR(PM).
Upon membrane depolarization, ZIMIR signal increased immediately and reached a plateau before it gradually declined (FIGS. 6E-F). Unexpectedly, however, in some occasions, ZIMIR signal remained elevated even after the inventors lowered KCl concentration to the resting level (5 mM) (FIG. 9). […] In INS-1 beta cells labeled with ZIMIR, after recording ZIMIR fluorescence in solutions containing ˜1 μM of Zn2+, the inventors perifused cells with a nominally Zn^2+-free solution containing only EDTA (10 μM), or with both EDTA (10 μM) and different concentrations of DPAS.

The conditions of data set [2]: FluoZin-3, background; read-out: Zn^2+ dissociation constant Kd(Zn^2+); cited from earlier work.
The conditions of data set [3]: FluoZin-3, background; read-out: Kd(Ca^2+); cited from earlier work.
Data set [4] is described as follows: Zn2+ titration of ZIMIR-C2 (fluorescence, NTA Zn2+ buffering system). The class given is binding. How it is done:
(§1) FIGS. 3A-D. (FIG. 3A) Absorption spectrum of ZIMIR-C2. (FIG. 3B) Zn^2+ dependent fluorescence enhancement of ZIMIR-C2. Zn^2+ concentrations (nM) were 0, 43, 140, 440, 840, 1640 and 6440 (from bottom to top). (FIG. 3C) Zn^2+ titration of ZIMIR-C2 as measured from its emission at 515 nm. The solid line represents the exponential fit. […] All measurements were performed in buffers containing 100 mM Hepes, pH 7.5 with 0.4 μM of ZIMIR-C2.
Zn^2+ titration and ion selectivity of ZIMIR. To measure the Zn^2+ affinity of ZIMIR, we performed Zn2+ titration of ZIMIR-C2 (0.4 μM) using a Zn^2+ buffering system based on nitrilotriacetic acid (NTA) (Komatsu et al., 2005). The buffer contained 100 mM HEPES (pH 7.5), 10 mM NTA and varying concentrations of ZnSO4 (0-9 mM) to reach free Zn2+ concentration between 0.1 nM to 43 nM. Zn^2+ concentrations above 43 nM were not buffered. However, since the commercial Hepes always contains a trace amount of divalent metal (≦5 ppm), it was necessary to add a minimum amount of NTA to chelate the residual Zn^2+ present in the Hepes solution. […] From that point, increasing amount of ZnSO4 was added to reach higher Zn^2+ concentrations. […] To examine the Zn^2+ binding selectivity of ZIMIR against Ca^2+ or Mg^2+, we measured the fluorescence intensity of ZIMIR-C2 in a nominally Zn^2+ free solution containing 50 μM DPAS or in a solution containing 1 μM ZnCl2, with or without Ca^2+/Mg^2+ (1 mM).

Data set [5] in a line: Absorption, fluorescence and solubility properties of ZIMIR-C2 in aqueous solution. In kind it is physicochemical. As for the experimental part:
as §1
The inventors synthesized ZIMIR in a total of 8 steps (FIG. 2). […] The absorption maximum of ZIMIR-C2 centered around 493 nm with an extinction coefficient of 73,000 M-1 cm-1. At low nanomolar [Zn^2+], ZIMIR-C2 was nearly non-fluorescent (fluorescence quantum yield Qf (0 Zn^2+) =0.0032) (FIGS. 3A-D). Its fluorescence intensity increased with [Zn^2+]and reached a plateau at micromolar [Zn^2+], with an overall fluorescence enhancement of 70-fold upon Zn^2+ complexation (Qf (Zn^2+) =0.225), providing a Zn^2+ binding dissociation constant of 0.45 μM (FIG. 3C). To confirm that

Data set [6] is described as follows: Zn2+ binding selectivity of ZIMIR-C2 against Ca2+ or Mg2+ (fluorescence intensity). The note with it: Ca^2+ 1 mM, Mg^2+ 1 mM; with or without 1 μM ZnCl2. How it is done:
as §1
Zn^2+ titration and ion selectivity of ZIMIR. To measure the Zn^2+ affinity of ZIMIR, we performed Zn2+ titration of ZIMIR-C2 (0.4 μM) using a Zn^2+ buffering system based on nitrilotriacetic acid (NTA) (Komatsu et al., 2005). The buffer contained 100 mM HEPES (pH 7.5), 10 mM NTA and varying concentrations of ZnSO4 (0-9 mM) to reach free Zn2+ concentration between 0.1 nM to 43 nM. Zn^2+ concentrations above 43 nM were not buffered. However, since the commercial Hepes always contains a trace amount of divalent metal (≦5 ppm), it was necessary to add a minimum amount of NTA to chelate the residual Zn^2+ present in the Hepes solution. […] To examine the Zn^2+ binding selectivity of ZIMIR against Ca^2+ or Mg^2+, we measured the fluorescence intensity of ZIMIR-C2 in a nominally Zn^2+ free solution containing 50 μM DPAS or in a solution containing 1 μM ZnCl2, with or without Ca^2+/Mg^2+ (1 mM).

calcein/AM [reference compound]: the “distribution of dye in islets (3D, CLSM)” value with pancreatic islets is “only labeled cells of the superficial layers”.
On to `O=S(=O)(O)CCN(Cc1ccccn1)Cc1ccccn1` [DPAS, 2-[Bis(2-pyridinylmethyl)amino]-ethanesulfonic acid], for which the “Zn^2+ chelation kinetics compared with EDTA” value in data set [1] is recorded as “much faster kinetics than EDTA”. Further, the “increase of the rate of Zn^2+ dissipation from the plasma membrane” value with INS-1 cells is listed as “about one order of magnitude”.
For `COc1ccc(N(CC(=O)O)CC(=O)O)c(OCCOc2cc(-c3c4cc(F)c(=O)cc-4oc4cc(O)c(F)cc34)ccc2NCC(=O)O)c1` [FluoZin-3], the Kd was 15 nM in data set [2] and approximately 10000 nM in data set [3].
Regarding `CCN(CC(=O)O)Cc1c2oc3c(CN(CC)CC(=O)O)c(O)ccc3c(-c3cc(NCCN(CCc4ccccn4)Cc4ccccn4)ccc3C(=O)O)c-2ccc1=O` [ZIMIR-C2], the Kd in data set [4] (0.4 μM ZIMIR-C2, 100 mM HEPES pH 7.5, two independent titrations, read-out: Kd(Zn^2+), independent Zn^2+ titrations) is 433 nM and 467 nM; in data set [4] (FIG. 3C, emission at 515 nm, read-out: Zn^2+ binding dissociation constant), 450 nM; in data set [4] (average of two titrations, 100 mM HEPES pH 7.5, read-out: average Kd(Zn^2+)), 450 nM. Moreover, the “overall fluorescence enhancement upon Zn^2+ complexation” value in data set [4] (plateau at micromolar [Zn^2+]) worked out at 70 fold. The absorption maximum entry in data set [5] (100 mM Hepes, pH 7.5) is “around 493 nm”. Moreover, the “aqueous solubility” value in data set [5] (aqueous solutions) is recorded as “highly soluble”. The extinction coefficient in data set [5] (at absorption maximum) is recorded as 73,000 M-1 cm-1. For the same compound, the “fluorescence quantum yield Qf (0 Zn^2+)” value in data set [5] (low nanomolar [Zn^2+]) was 0.0032. In data set [5] (upon Zn^2+ complexation, micromolar [Zn^2+]), the “fluorescence quantum yield Qf (Zn^2+)” value is reported as 0.225. Moreover, the “effect of Ca^2+ and Mg^2+ on fluorescence / Zn^2+ selectivity” value in data set [6] is “neither Ca^2+ nor Mg^2+ affected ZIMIR-C2 fluorescence; also recorded: binds Zn^2+ selectively against Ca^2+ (1 mM) and Mg^2+ (1 mM)”.
